For series [1], the system named is Molm-13 cells. Briefly: Apoptosis of Molm-13 cells. Format: cell-based. How it is done:
Treatment of Molm-13 cells with compound 1 for 7 days at 1 and 3 μM caused significant apoptosis of 22.7% and 67.6%, respectively (FIG. 6C).

The subject of series [2] is Kasumi-1, RPMI-8226 and U266 cells. The following applies: read-out: EC50, proliferation; AML Kasumi-1 and myeloma RPMI-8226 and U266 cells, range over cell lines. The text has this: (§1) FIGS. 6A-6G summarize the antitumor activities of ENL-targeting compounds.
The next series has as its system Panc1. The note with it: read-out: EC50, proliferation; Panc1 (pancreatic) cells.
Description: as §1

Series [3] deals with RPMI-8226 cells. Briefly: Gene profiling and GSEA in RPMI-8226 cells. The class given is cell-based. The note with it: 500 nM for 4 days.
A further series concerns MV4;11 cells. The following applies: footnote b: reported in Li, et al. J Hematol Oncol, 2022, read-out: Anti-proliferative activity EC50, MV4; cited from earlier work.
The subject of series [4] is RPMI-8226 cells. Briefly: Anti-proliferative activity, RPMI-8226 cells. Format: cell-based.
Series [5] concerns the target T1, ENL YEATS-H3K27ac interaction (Homo sapiens, UniProt Q03111).
T1 sequence (Q03111 1-138 limits assumed): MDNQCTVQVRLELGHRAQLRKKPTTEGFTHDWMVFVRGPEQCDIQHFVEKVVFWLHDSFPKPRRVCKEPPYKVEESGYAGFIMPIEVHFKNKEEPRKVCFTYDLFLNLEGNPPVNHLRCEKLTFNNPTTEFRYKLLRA
Briefly: ALPHA assay, inhibition of ENL YEATS-H3K27ac interaction. The following applies: read-out: IC50, inhibition of ENL YEATS-H3K27ac interaction.

Series [6] relates to Hela cell. The note with it: Hela cells, footnote b: reported in Li, et al. J Hematol Oncol, 2022; read-out: Anti-proliferative activity EC50, Hela; cited from earlier work.
In the next series the test system is Molm-13 leukemia. Briefly: Subcutaneous Molm-13 leukemia xenograft in NOD-SCID mice. The class given is in vivo. How it is done:
In vivo antitumor activity of compound 1 was evaluated in a commonly used mouse model of Molm-13 leukemia. First, in vivo toxicity was assessed in C57BL/6 mice. […] Next, 10^6 Molm-13 cells were injected subcutaneously into NOD-SCID mice, which developed palpable tumors in ˜1 week and grew rapidly.

The subject of another series is HoxA9, Meis1 and Myc. Briefly: Expression of HoxA9, Meis1 and Myc in Molm-13 cells. Format: cell-based. The note with it: 4 days. How it is done:
Previous studies show ENL is required for expression of MLL1-target genes in MLL1-r leukemia. How compound 1-mediated ENL degradation changes expression of HoxA9, Meis1 and Myc, three characteristic genes in MLL1-r leukemia, was examined. Molm-13 cells were treated with compound 1 for 4 days, after which the RNAs were extracted and analyzed.

Series [7] deals with Molm-13 cells. The following applies: Molm13 cells, footnote b: reported in Li, et al. J Hematol Oncol, 2022; read-out: Anti-proliferative activity EC50, Molm13; cited from earlier work.
Series [8] relates to Hela cell. Briefly: Anti-proliferative activity, Hela cells. The class given is cell-based. The following applies: Hela (cervical) cells; read-out: EC50, proliferation.
Series [9] relates to Molm-13 cells. Briefly: Differentiation of Molm-13 cells (CD14, CD11b). The class given is cell-based. The note with it: 3 μM for 5 days.
For another series, the target named is T2, ENL (Homo sapiens, UniProt Q03111).
T2 construct: tested whether the compounds degrade ENL and AF9 in MV4;11 leukemia cells; endogenous in cells; host or cells: MV4;11; Molm-13
T2 sequence (Q03111 1-559): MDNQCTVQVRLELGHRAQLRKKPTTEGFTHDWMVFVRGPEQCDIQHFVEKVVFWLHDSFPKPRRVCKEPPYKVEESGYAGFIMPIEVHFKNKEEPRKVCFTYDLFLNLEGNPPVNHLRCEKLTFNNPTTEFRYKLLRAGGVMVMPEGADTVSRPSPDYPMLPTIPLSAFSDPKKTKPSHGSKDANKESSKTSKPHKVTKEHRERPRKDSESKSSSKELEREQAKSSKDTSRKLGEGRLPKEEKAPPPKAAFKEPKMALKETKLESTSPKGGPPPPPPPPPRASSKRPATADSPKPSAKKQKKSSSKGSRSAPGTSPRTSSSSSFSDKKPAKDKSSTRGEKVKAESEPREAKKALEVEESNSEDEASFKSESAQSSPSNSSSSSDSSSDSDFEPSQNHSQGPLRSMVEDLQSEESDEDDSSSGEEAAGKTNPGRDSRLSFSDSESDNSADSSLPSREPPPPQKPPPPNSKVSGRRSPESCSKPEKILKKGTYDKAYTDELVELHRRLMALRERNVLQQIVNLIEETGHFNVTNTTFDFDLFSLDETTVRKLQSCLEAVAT
Briefly: ENL degradation in MV4;11 cells (Western blot). The class given is cell-based. The following applies: 500 nM.

Where two headings read alike, the source gives them in different places.

This is an account of results in patent US20250235437A1, “PROTEOLYSIS TARGETING CHIMERA (PROTAC) MOLECULE FOR DEGRADATION OF ENL AND CANCER THERAPY” (Baylor College of Medicine, priority 2022, published 2025).

By IC50 is commonly meant the concentration that inhibits the measured activity by half.

Consider `C[C@H]1CCCN1Cc1nc2cc(NC(=O)c3ccc4c(cnn4CCCCCCCCNc4cccc5c4C(=O)N(C4CCC(=O)NC4=O)C5=O)c3)ccc2[nH]1` (stereo partly shown) [Compound 1], for which the apoptosis in the series with Molm-13 cells [1] (0.5 μM or shorter incubation (e.g. 4 days)) is < 5%; in the series on Molm-13 cells [1] (7 days, 1 μM) it was 22.7%; in the series on Molm-13 cells [1] (7 days, 3 μM), 67.6%. The EC50 in series [2] is 1100 to 4100 nM; in the series with Panc1, > 50000 nM; with MV4;11 cells it was 570 nM; with RPMI-8226 cells [4], 1200 ± 230 nM; in the series on Hela cell [6] it was > 50000 nM; in the series with Molm-13 cells [7], 320 nM. In the series on Hela cell [8], the EC50 is > 50000 nM. Besides, the “expression of MYC target gene set (GSEA)” value in the series on RPMI-8226 cells [3] was “significantly down-regulated”. The half-maximal inhibitory concentration (IC50) in series [5] turned out to be 170 nM. In addition, in the series with Molm-13 leukemia (30 mg/kg/day for Day 3-15), the body weight entry is listed as “did not cause significant weight losses”. In the series with Molm-13 leukemia (30 mg/kg/day for Day 3-15), the tumor growth entry was “significantly inhibited tumor growth”. Besides, the animal survival result with Molm-13 leukemia (30 mg/kg/day for Day 3-15, p<0.01) was “prolonged animal survivals”. Further, in the series on HoxA9, Meis1 and Myc, the “expression of HoxA9, Meis1 and Myc” value is recorded as “significantly inhibit expression of these three genes in a generally dose-dependent manner”. In addition, the “cell differentiation (CD14, CD11b)” value in the series on Molm-13 cells [9] is given as “induced cell differentiation”. On ENL, the “time at which significant ENL degradation can be detected” value is 2 h. Moreover, on ENL, the “time to ENL depletion” value is ≤ 24 h.
